Assay results from US10730911B2, “Backbone-cyclized peptidomimetics with GLP-1R modulating activity” (POLYPHOR AG, priority 2015, dated 2020).
Where a SMILES comes first, the peptide text is derived from it. [ ]: non-standard residue; d: D form. Aad = N[C@@H](CCCC(=O)O)C(=O)O; Aic = NC1(C(=O)O)Cc2ccccc2C1; Phg = N[C@H](C(=O)O)c1ccccc1; Ac8c = NC1(C(=O)O)CCCCCCC1; Ac7c = NC1(C(=O)O)CCCCCC1; Ac6c = NC1(C(=O)O)CCCCC1; Ac5c = NC1(C(=O)O)CCCC1; Deg = CCC(N)(CC)C(=O)O; Aib = CC(C)(N)C(=O)O

Molecular target: T1, human glucagon-like peptide-1 receptor (GLP-1R) (Homo sapiens, UniProt P43220)
T1 construct: host or cells: CHO chAMPion cells
T1 sequence (P43220 24-463): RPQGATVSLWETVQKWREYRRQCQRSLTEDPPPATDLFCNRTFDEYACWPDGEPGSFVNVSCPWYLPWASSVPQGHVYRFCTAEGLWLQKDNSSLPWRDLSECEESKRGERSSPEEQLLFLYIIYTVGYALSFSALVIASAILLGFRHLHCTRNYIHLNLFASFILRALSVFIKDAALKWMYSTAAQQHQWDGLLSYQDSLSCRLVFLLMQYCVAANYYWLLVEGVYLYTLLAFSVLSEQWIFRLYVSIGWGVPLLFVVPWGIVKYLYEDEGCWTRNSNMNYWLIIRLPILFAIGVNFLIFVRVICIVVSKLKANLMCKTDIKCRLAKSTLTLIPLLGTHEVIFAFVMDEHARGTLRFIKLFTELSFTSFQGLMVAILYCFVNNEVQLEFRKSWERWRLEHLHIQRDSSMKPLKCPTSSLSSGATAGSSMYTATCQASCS
Assay: Human GLP-1 receptor cell-based assay (flash luminescence, Target Activation phase)
Conditions: CHO chAMPion cells stably co-expressing human GLP-1R, Photina and cAMP-activated calcium channel; agonist activity; normalization by forskolin at 10 μM; ^a) values from single experiment; read-out: EC50 (μM) Target Activation (TA)
In short: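 CHO cells co-expressing human GLP-1R, photoprotein and a cAMP-gated Ca2+ channel, preloaded 4 h with coelenterazine and 500 μM IBMX. Compounds at 8 concentrations from 50 μM, quadruplicate; 30 min later 10 mM CaCl2 added and flash luminescence read. EC50 normalized to 10 μM forskolin or 3.16 nM GLP-1.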

EC50 [µM]	Compound
5.1 ± 1.4	CC(C)C[C@@H]1NC(=O)[C@H](CCC(N)=O)NC(=O)[C@H](Cc2c[nH]c3ccccc23)NC(=O)[C@H](Cc2ccccc2)NC(=O)C2(CCCC2)NC(=O)[C@H]2CCCN2C(=O)[C@H](Cc2ccccc2)NC(=O)[C@H](CCC(=O)O)NC(=O)[C@H](Cc2c[nH]c3ccccc23)NC(=O)[C@H](C)NC1=O [compound 46, cyclo(-Phe-Trp-Gln-Leu-Ala-Trp-Glu-Phe-^DPro-Cyp-)] (cyclo(FWQLAWEF[dP][Ac5c]))
2	CCC1(CC)NC(=O)[C@H]2CCCN2C(=O)[C@H](Cc2ccccc2)NC(=O)[C@H](CCC(=O)O)NC(=O)[C@H](Cc2c[nH]c3ccccc23)NC(=O)[C@H](C)NC(=O)[C@H](CC(C)C)NC(=O)[C@H](CC(C)C)NC(=O)[C@H](CCC(=O)O)NC(=O)[C@H](Cc2ccccc2)NC1=O [compound 47, cyclo(-Phe-Glu-Leu-Leu-Ala-Trp-Glu-Phe-^DPro-Deg-)] (cyclo(FELLAWEF[dP][Deg]))
0.9 ± 0.18	CC(C)C[C@@H]1NC(=O)[C@H](CCC(=O)O)NC(=O)[C@H](Cc2ccccc2)NC(=O)C2(CCCC2)NC(=O)[C@H]2CCCN2C(=O)[C@H](Cc2ccccc2)NC(=O)[C@H](CCC(=O)O)NC(=O)[C@H](Cc2c[nH]c3ccccc23)NC(=O)[C@H](C)NC(=O)[C@H](Cc2ccc(O)cc2)NC1=O [compound 48, cyclo(-Phe-Glu-Leu-Tyr-Ala-Trp-Glu-Phe-^DPro-Cyp-)] (cyclo(FELYAWEF[dP][Ac5c]))
3.1	CC(C)C[C@@H]1NC(=O)[C@H](CCC(N)=O)NC(=O)[C@H](Cc2ccccc2)NC(=O)C2(CCCCC2)NC(=O)[C@H]2CCCN2C(=O)[C@H](Cc2ccc(O)cc2)NC(=O)[C@H](CCCC(=O)O)NC(=O)[C@H](Cc2c[nH]c3ccccc23)NC(=O)[C@H](C)NC(=O)[C@H](Cc2ccc(O)cc2)NC1=O [compound 49, cyclo(-Phe-Gln-Leu-Tyr-Ala-Trp-Hgl-Tyr-^DPro-Chx-)] (cyclo(FQLYAW[Aad]Y[dP][Ac6c]))
2.4	CC(C)C[C@@H]1NC(=O)[C@H](CCC(=O)O)NC(=O)[C@H](Cc2ccccc2)NC(=O)C2(CCCCC2)NC(=O)[C@H]2CCCN2C(=O)[C@H](c2ccccc2)NC(=O)[C@H](CCC(=O)O)NC(=O)[C@H](Cc2c[nH]c3ccccc23)NC(=O)[C@H](C)NC(=O)[C@H](Cc2ccc(O)cc2)NC1=O [compound 50, cyclo(-Phe-Glu-Leu-Tyr-Ala-Trp-Glu-Phg-^DPro-Chx-)] (cyclo(FELYAWE[Phg][dP][Ac6c]))
3.3	CC(C)C[C@@H]1NC(=O)[C@H](Cc2c[nH]cn2)NC(=O)[C@H](Cc2ccccc2)NC(=O)C(C)(C)NC(=O)[C@H]2CCCN2C(=O)[C@H](Cc2ccc(O)cc2)NC(=O)[C@H](CCC(N)=O)NC(=O)[C@H](Cc2c[nH]c3ccccc23)NC(=O)[C@H](C)NC(=O)[C@H](Cc2ccc(O)cc2)NC1=O [compound 51, cyclo(-Phe-His-Leu-Tyr-Ala-Trp-Gln-Tyr-^DPro-Aib-)] (cyclo(FHLYAWQY[dP][Aib]))
0.82 ± 0.25	CC(C)C[C@@H]1NC(=O)[C@H](CC(C)C)NC(=O)[C@H](CCC(=O)O)NC(=O)[C@H](Cc2ccccc2)NC(=O)C2(Cc3ccccc3C2)NC(=O)[C@H]2CCCN2C(=O)[C@H](Cc2ccccc2)NC(=O)[C@H](CCC(=O)O)NC(=O)[C@H](Cc2c[nH]c3ccccc23)NC(=O)[C@H](C)NC1=O [compound 52, cyclo(-Phe-Glu-Leu-Leu-Ala-Trp-Glu-Phe-^DPro-Ind-)] (cyclo(FELLAWEF[dP][Aic]))
2.1	CC(C)C[C@@H]1NC(=O)[C@H](CC(C)C)NC(=O)[C@H](CCC(=O)O)NC(=O)[C@H](Cc2ccccc2)NC(=O)C2(CCCCCC2)NC(=O)[C@H]2CCCN2C(=O)[C@H](Cc2ccccc2)NC(=O)[C@H](CCC(=O)O)NC(=O)[C@H](Cc2c[nH]c3ccccc23)NC(=O)[C@H](C)NC1=O [compound 53, cyclo(-Phe-Glu-Leu-Leu-Ala-Trp-Glu-Phe-^DPro-Ac7c-)] (cyclo(FELLAWEF[dP][Ac7c]))
1.1	CC(C)C[C@@H]1NC(=O)[C@H](CC(C)C)NC(=O)[C@H](CCC(=O)O)NC(=O)[C@H](Cc2ccccc2)NC(=O)C2(CCCCCCC2)NC(=O)[C@H]2CCCN2C(=O)[C@H](Cc2ccccc2)NC(=O)[C@H](CCC(=O)O)NC(=O)[C@H](Cc2c[nH]c3ccccc23)NC(=O)[C@H](C)NC1=O [compound 54, cyclo(-Phe-Glu-Leu-Leu-Ala-Trp-Glu-Phe-^DPro-Ac8c-)] (cyclo(FELLAWEF[dP][Ac8c]))
